From patent publication US20100099561A1, “HETEROBICYCLIC ALKYLTHIO-BRIDGED ISOXAZOLINES” (E.I. DU PONT DE NEMOURS AND COMPANY, priority 2008, published 2010)

How the values were obtained:
Assay type in all cases: in vivo
[1] = tested on: barnyardgrass (Echinochloa crus-galli); experiment: Test A preemergence, barnyardgrass; settings: 0 to 100 scale (0 no effect, 100 complete control)
From the text: (§1) Seeds of barnyardgrass (Echinochloa crus-galli), large crabgrass (Digitaria sanguinalis), giant foxtail (Setaria faberi), morningglory (Ipomoea spp.), pigweed (Amaranthus retroflexus), velvetleaf (Abutilon theophrasti), wheat (Triticum aestivum), and corn (Zea mays) were planted into a blend of loam soil and sand and treated preemergence with a directed soil spray using test chemicals formulated in a non-phytotoxic solvent mixture which included a surfactant. At the same time these species were also treated with postemergence applications of test compounds formulated in the same manner. Plants ranged in height from two to ten cm and were in the one- to two-leaf stage for the postemergence treatment. Treated plants and untreated controls were maintained in a greenhouse for approximately ten days, after which time all treated plants were compared to untreated controls and visually evaluated for injury. Plant response ratings, summarized in Table A, are based on a 0 to 100 scale where 0 is no effect and 100 is complete control. A dash (-) response means no test result.

[2] = tested on: large crabgrass (Digitaria sanguinalis); experiment: Test A preemergence, large crabgrass; settings: 0 to 100 scale (0 no effect, 100 complete control)
From the text: as §1

[3] = tested on: giant foxtail (Setaria faberi); experiment: Test A preemergence, giant foxtail; settings: 0 to 100 scale (0 no effect, 100 complete control)
From the text: as §1

[4] = tested on: morningglory (Ipomoea spp.); experiment: Test A preemergence, morningglory; settings: 0 to 100 scale (0 no effect, 100 complete control)
From the text: as §1

[5] = tested on: pigweed (Amaranthus retroflexus); experiment: Test A preemergence, pigweed; settings: 0 to 100 scale (0 no effect, 100 complete control)
From the text: as §1

[6] = tested on: velvetleaf (Abutilon theophrasti); experiment: Test A preemergence, velvetleaf; settings: 0 to 100 scale (0 no effect, 100 complete control)
From the text: as §1

[7] = tested on: wheat (Triticum aestivum); experiment: Test A preemergence, wheat; settings: 0 to 100 scale (0 no effect, 100 complete control)
From the text: as §1

corn (Zea mays) [8] = experiment: Test A preemergence, corn; settings: 0 to 100 scale (0 no effect, 100 complete control)
From the text: as §1

[9] = tested on: barnyardgrass (Echinochloa crus-galli); experiment: Test A postemergence, barnyardgrass; settings: 0 to 100 scale (0 no effect, 100 complete control)
From the text: as §1

[10] = tested on: large crabgrass (Digitaria sanguinalis); experiment: Test A postemergence, large crabgrass; settings: 0 to 100 scale (0 no effect, 100 complete control)
From the text: as §1

[11] = tested on: giant foxtail (Setaria faberi); experiment: Test A postemergence, giant foxtail; settings: 0 to 100 scale (0 no effect, 100 complete control)
From the text: as §1

[12] = tested on: morningglory (Ipomoea spp.); experiment: Test A postemergence, morningglory; settings: 0 to 100 scale (0 no effect, 100 complete control)
From the text: as §1

[13] = tested on: pigweed (Amaranthus retroflexus); experiment: Test A postemergence, pigweed; settings: 0 to 100 scale (0 no effect, 100 complete control)
From the text: as §1

[14] = tested on: velvetleaf (Abutilon theophrasti); experiment: Test A postemergence, velvetleaf; settings: 0 to 100 scale (0 no effect, 100 complete control)
From the text: as §1

[15] = tested on: wheat (Triticum aestivum); experiment: Test A postemergence, wheat; settings: 0 to 100 scale (0 no effect, 100 complete control)
From the text: as §1

corn (Zea mays) [16] = experiment: Test A postemergence, corn; settings: 0 to 100 scale (0 no effect, 100 complete control)
From the text: as §1

rice (Oryza sativa) = experiment: Test B flooded paddy test, rice; settings: Flood, scale 0 to 100
From the text: (§2) Plant species in the flooded paddy test consisted of rice (Oryza sativa), umbrella sedge (Cyperus difformis), ducksalad (Heteranthera limosa) and barnyardgrass (Echinochloa crus-galli) grown to the 2-leaf stage for testing. At time of treatment, test pots were flooded to 3 cm above the soil surface, treated by application of test compounds directly to the paddy water, and then maintained at that water depth for the duration of the test. Treated plants and controls were maintained in a greenhouse for 13 to 15 days, after which time all species were compared to controls and visually evaluated. Plant response ratings, summarized in Table B, are based on a scale of 0 to 100 where 0 is no effect and 100 is complete control. A dash (-) response means no test result.

[17] = tested on: umbrella sedge (Cyperus difformis); experiment: Test B flooded paddy test, umbrella sedge; settings: Flood, scale 0 to 100
From the text: as §2

[18] = tested on: ducksalad (Heteranthera limosa); experiment: Test B flooded paddy test, ducksalad; settings: Flood, scale 0 to 100
From the text: as §2

[19] = tested on: barnyardgrass (Echinochloa crus-galli); experiment: Test B flooded paddy test, barnyardgrass; settings: Flood
From the text: as §2

CC1(C)CC(S(=O)(=O)Cc2c(C(F)(F)F)nc3ccccn3c2=O)=NO1 [Compound 7]
Plant response rating, Barnyardgrass ([1]; 125 g ai/ha): 60
Plant response rating, Barnyardgrass ([1]; 500 g ai/ha): 90
Plant response rating, Crabgrass, Large ([2]; 125 g ai/ha): 60
Plant response rating, Crabgrass, Large ([2]; 500 g ai/ha): 80
Plant response rating, Foxtail, Giant ([3]; 125 g ai/ha): 80
Plant response rating, Foxtail, Giant ([3]; 500 g ai/ha): 90
Plant response rating, Morningglory ([4]; 125 g ai/ha): 0
Plant response rating, Morningglory ([4]; 500 g ai/ha): 0
Plant response rating, Pigweed ([5]; 125 g ai/ha): 0
Plant response rating, Pigweed ([5]; 500 g ai/ha): 0
Plant response rating, Velvetleaf ([6]; 125 g ai/ha): 0
Plant response rating, Velvetleaf ([6]; 500 g ai/ha): 0
Plant response rating, Wheat ([7]; 125 g ai/ha): 0
Plant response rating, Wheat ([7]; 500 g ai/ha): 10
Plant response rating, Corn (corn (Zea mays) [8]; 125 g ai/ha): 0
Plant response rating, Corn (corn (Zea mays) [8]; 500 g ai/ha): 0
Plant response rating, Barnyardgrass ([9]; 125 g ai/ha): 80
Plant response rating, Barnyardgrass ([9]; 500 g ai/ha): 80
Plant response rating, Crabgrass, Large ([10]; 125 g ai/ha): 40
Plant response rating, Crabgrass, Large ([10]; 500 g ai/ha): 80
Plant response rating, Foxtail, Giant ([11]; 125 g ai/ha): 60
Plant response rating, Foxtail, Giant ([11]; 500 g ai/ha): 80
Plant response rating, Morningglory ([12]; 125 g ai/ha): 0
Plant response rating, Morningglory ([12]; 500 g ai/ha): 0
Plant response rating, Pigweed ([13]; 125 g ai/ha): 0
Plant response rating, Pigweed ([13]; 500 g ai/ha): 0
Plant response rating, Velvetleaf ([14]; 125 g ai/ha): 0
Plant response rating, Velvetleaf ([14]; 500 g ai/ha): 20
Plant response rating, Wheat ([15]; 125 g ai/ha): 0
Plant response rating, Wheat ([15]; 500 g ai/ha): 0
Plant response rating, Corn (corn (Zea mays) [16]; 125 g ai/ha): 0
Plant response rating, Corn (corn (Zea mays) [16]; 500 g ai/ha): 0
Plant response rating, Rice (rice (Oryza sativa); 62 g ai/ha): 0
Plant response rating, Rice (rice (Oryza sativa); 250 g ai/ha): 0
Plant response rating, Sedge, Umbrella ([17]; 62 g ai/ha): 0
Plant response rating, Sedge, Umbrella ([17]; 250 g ai/ha): 0
Plant response rating, Ducksalad ([18]; 62 g ai/ha): 0
Plant response rating, Ducksalad ([18]; 250 g ai/ha): 0
Plant response rating, Barnyardgrass ([19]; 62 g ai/ha, scale 0 to 100): 0
Plant response rating, Barnyardgrass ([19]; 250 g ai/ha, scale 0 to 100 (0 no effect, 100 complete control)): 0
